# Patent US5795912A, “Therapeutic composition for corneal impairment” (Senju Pharmaceutical, Co., Ltd., priority 1997, dated 1998)
# Key:
# [1] = system: UV-induced corneal lesion; assay: Inhibitory effect on UV-induced corneal lesions in rabbits (fluorescein penetration into the cornea, corneal epithelial barrier function); type: in vivo, rabbit (white rabbits); details: from Table 1 and FIG. 1
# Procedure: The inhibitory effect of the present compound on UV-induced corneal lesions in rabbits was evaluated. Test substance: L-Ascorbyl DL-α-tocopherylphosphate potassium (abbreviation: EPC-K). Method: White rabbits were used; 4 animals assigned to the present compound treatment group and 3 assigned to a control group (the nictitating membrane was excised beforehand).
# For UV irradiation, Hoya-Schott's HLS200U (dominant wavelength 365 nm) equipped with a 200 W mercury-xenon lamp as the light source was used. Ushio Electric's Unimeter UIT-101 was used for the determination of luminous energy.
# One eye of each rabbit was kept open with an eye speculum and set at a distance of 43 cm from the light source so that the irradiation energy would be 0.024 J/cm^2. […]
# The degree of rabbit corneal lesion was evaluated by the following method^1). Using fluorescein as a tracer, the fluorescence intensity of the tracer dye penetrating into the cornea within a predetermined region was measured for a quantitative assessment of the barrier function of the corneal epithelium (The corneal epithelium has a barrier function^2) to restrict penetration of any substance into the deep layer of the cornea and when an erosion or other injury occurs in the corneal epithelium, this barrier function is compromised so that the penetration of the substance into the depth of the cornea is increased). […]
# rats [2] = assay: LD50, p.o. (rats); type: in vivo
# rats [3] = assay: LD50, i.v. (rats); type: in vivo
smiles,measurement,setting,value
"Cc1c(C)c2c(c(C)c1OP(=O)(O)OC1=C(O)[C@@H]([C@@H](O)CO)OC1=O)CCC(C)(CCCC(C)CCCC(C)CCCC(C)C)O2 (mixture of isomers) [EPC-K, L-ascorbyl DL-α-tocopheryl phosphate potassium]",inhibition of UV-induced corneal lesion (result in words),[1],effectively inhibits UV-induced corneal lesion
same,LD50,rats [2],≥ 5 g/kg
same,LD50,rats [3],≥ 100 mg/kg
